Reference: paper PMC11428031, “Discovery of selective LATS inhibitors via scaffold hopping: enhancing drug-likeness and kinase selectivity for potential applications in regenerative medicine” (RSC Medicinal Chemistry, 2024)
In brackets after ≈: the same amount, converted by molar mass.

Key:
[1] = Liver microsomal phase I stability, human; details: for HLM phase I stability (% remaining after 30 min): human liver microsomes 0.5 mg/mL, 1 μM compound, NADPH, 37 °C, mean ± SD, n=3; for Stability in human liver microsomes relative to 1, Truli: experimental values of Table 4
in vitro [2] = details: human, liver microsomes
physchem = details: D2O (deuterium oxide)
in vitro [3] = details: mouse, liver microsomes
321 protein kinases = system: 321 protein kinases; parameters: method as in PMID 35231442; details: out of 321 tested protein kinases; cited from earlier work
[4] = Liver microsomal phase I stability, mouse; details: mouse liver microsomes 0.5 mg/mL, 1 μM compound, NADPH, 37 °C, mean ± SD, n=3
[5] = In vivo pharmacokinetics in male mice; details: for Ft: IP; for half-life: T1/2, male mice; for clearance: CL
Description: All animal procedures were performed in accordance with the Guidelines for Care and Use of Laboratory Animals of Korea Research Institute of Chemical Technology and approved by the Animal Ethics Committee of Korea Research Institute of Chemical Technology.

468 kinases = experiment: KINOMEscan scanMAX kinase profiling, selectivity over the panel; format: binding; details: 100 nM, of 403 non-mutant kinases
YSK4 = target: T1, YSK4 (Homo sapiens, UniProt Q56UN5); experiment: KINOMEscan scanMAX binding, YSK4; details: 100 nM compound; lower = stronger interaction
T1 sequence (Q56UN5 1-1328): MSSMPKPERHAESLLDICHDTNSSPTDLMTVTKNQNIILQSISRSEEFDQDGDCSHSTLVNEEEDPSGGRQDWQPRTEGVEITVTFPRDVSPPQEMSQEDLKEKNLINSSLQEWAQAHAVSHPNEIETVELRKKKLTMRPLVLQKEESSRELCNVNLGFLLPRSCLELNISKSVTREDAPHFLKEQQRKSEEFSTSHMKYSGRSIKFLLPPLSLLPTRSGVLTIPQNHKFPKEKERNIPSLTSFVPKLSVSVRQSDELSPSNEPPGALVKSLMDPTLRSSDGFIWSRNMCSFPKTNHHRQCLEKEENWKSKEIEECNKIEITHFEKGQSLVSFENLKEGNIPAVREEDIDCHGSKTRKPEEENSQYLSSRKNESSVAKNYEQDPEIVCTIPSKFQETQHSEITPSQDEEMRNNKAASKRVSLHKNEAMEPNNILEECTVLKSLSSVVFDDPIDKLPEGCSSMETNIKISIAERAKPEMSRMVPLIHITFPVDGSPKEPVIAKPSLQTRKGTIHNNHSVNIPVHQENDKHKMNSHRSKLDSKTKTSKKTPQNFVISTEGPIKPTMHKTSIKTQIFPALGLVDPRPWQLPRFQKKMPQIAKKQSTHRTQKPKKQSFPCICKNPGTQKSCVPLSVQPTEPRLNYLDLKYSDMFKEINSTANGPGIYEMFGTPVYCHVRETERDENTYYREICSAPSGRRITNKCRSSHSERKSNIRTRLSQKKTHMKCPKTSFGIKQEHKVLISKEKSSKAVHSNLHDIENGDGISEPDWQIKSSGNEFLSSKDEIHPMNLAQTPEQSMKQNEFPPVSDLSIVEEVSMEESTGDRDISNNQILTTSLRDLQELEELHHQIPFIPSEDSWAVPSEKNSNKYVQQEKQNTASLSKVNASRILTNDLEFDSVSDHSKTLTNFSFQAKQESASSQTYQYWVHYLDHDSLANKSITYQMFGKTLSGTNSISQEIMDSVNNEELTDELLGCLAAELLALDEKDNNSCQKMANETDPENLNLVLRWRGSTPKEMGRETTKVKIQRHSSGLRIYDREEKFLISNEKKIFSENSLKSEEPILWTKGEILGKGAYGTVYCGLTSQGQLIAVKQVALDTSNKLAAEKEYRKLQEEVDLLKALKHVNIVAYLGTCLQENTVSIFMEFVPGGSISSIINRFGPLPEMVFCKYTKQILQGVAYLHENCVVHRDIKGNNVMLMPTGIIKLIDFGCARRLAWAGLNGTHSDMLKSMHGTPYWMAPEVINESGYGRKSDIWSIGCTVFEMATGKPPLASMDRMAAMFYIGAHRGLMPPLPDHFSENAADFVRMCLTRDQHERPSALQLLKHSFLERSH

DMPK = target: T2, DMPK (Homo sapiens, UniProt Q09013); experiment: KINOMEscan scanMAX binding, DMPK; details: 100 nM compound; lower = stronger interaction
T2 sequence (Q09013 1-629): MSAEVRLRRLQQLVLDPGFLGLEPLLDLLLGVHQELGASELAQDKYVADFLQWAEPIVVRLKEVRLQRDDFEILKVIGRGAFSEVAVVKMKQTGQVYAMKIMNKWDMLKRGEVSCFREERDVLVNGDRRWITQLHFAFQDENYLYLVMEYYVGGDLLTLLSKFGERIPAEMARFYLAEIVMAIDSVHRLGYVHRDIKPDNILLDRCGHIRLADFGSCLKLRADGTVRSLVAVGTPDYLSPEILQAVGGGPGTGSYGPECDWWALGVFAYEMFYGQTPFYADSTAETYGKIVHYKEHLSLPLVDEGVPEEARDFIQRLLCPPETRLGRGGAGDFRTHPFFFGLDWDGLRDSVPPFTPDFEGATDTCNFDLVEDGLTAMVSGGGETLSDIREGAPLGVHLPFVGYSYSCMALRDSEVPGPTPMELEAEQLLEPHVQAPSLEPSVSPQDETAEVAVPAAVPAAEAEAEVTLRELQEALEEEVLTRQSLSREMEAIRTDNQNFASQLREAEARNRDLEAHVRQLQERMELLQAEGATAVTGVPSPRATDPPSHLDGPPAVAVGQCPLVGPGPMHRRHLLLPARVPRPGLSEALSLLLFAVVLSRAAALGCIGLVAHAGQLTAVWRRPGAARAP

[6] = male, mouse, plasma, ip, 10 mg/kg
[7] = male, mouse, plasma, iv, 5 mg/kg
[8] = male, mouse, plasma, iv, 5 mg/kg, male mice
[9] = male, mouse, plasma, po, 20 mg/kg

| HLM phase I stability (% remaining after 30 min) [1] [%] | remaining at 0.5 h, 1 μM (in vitro [2]) [%] | solubility at 24 h (physchem) [µg/mL] | remaining at 0.5 h, 1 μM (in vitro [3]) [%] | Structure (SMILES) | Stability in human liver microsomes relative to 1, Truli [1] | Ft ([5]; male mice, 10 mg/kg) [%] | AUC(0-inf) [5, 6] [ng·h/mL] | AUC(0-t) [5, 6] [ng·h/mL] | Cmax [5, 6] [ng/mL] | MRT inf [5, 6] [h] | MRT last [5, 6] [h] | Tmax [5, 6] [h] | half-life [5, 6] [h] | AUC(0-inf) [5, 7] [ng·h/mL] | AUC(0-t) [5, 7] [ng·h/mL] | MRT inf [5, 7] [h] | MRT last [5, 7] [h] | Vd [5, 7] [L/kg] | clearance [5, 8] [mL/min/kg] | half-life [5, 7] [h] | further results |
| --- | --- | --- | --- | --- | --- | --- | --- | --- | --- | --- | --- | --- | --- | --- | --- | --- | --- | --- | --- | --- | --- |
| 2.7 ± 0.5 | 2.68 ± 0.46 | 140 ± 26 (≈ 419 µM) | 0.18 ± 0.03 | O=C(/N=c1\sccn1Cc1ccccc1)c1c[nH]c2ncccc12 [1 (Truli), (Z)-N-(3-benzylthiazol-2(3H)-ylidene)-1H-pyrrolo[2,3-b]pyridine-3-carboxamide, reference compound] |  |  |  |  |  |  |  |  |  |  |  |  |  |  |  |  |  |
|  |  |  |  | CC/C(=N\NC(=O)NCc1cccc(O)c1)c1ccc(O)c(C)c1O [3 (GA-017)] |  |  |  |  |  |  |  |  |  |  |  |  |  |  |  |  | Number of protein kinases against which high potency was exhibited (321 protein kinases): 16 |
| 43 ± 1.1 | 43.1 ± 1.1 | 680 ± 89 (≈ 2030 µM) | 13.8 ± 0.55 | O=C(/N=c1\sccn1Cc1ccccc1)c1c[nH]c2ncncc12 [Compound 5k, (Z)-N-(3-Benzylthiazol-2(3H)-ylidene)-7H-pyrrolo[2,3-d]pyrimidine-5-carboxamide] | more than ten times higher stability | 131.71 | 11500 ± 3250 | 11400 ± 3280 | 9510 ± 2030 | 1.27 ± 0.15 | 1.14 ± 0.15 | 0.5 | 5.24 ± 2.45 | 4340 ± 2160 | 4340 ± 2170 | 1.49 ± 1.72 | 1.43 ± 1.65 | 3 ± 4.42 | 23.5 | 2.86 ± 1.88 | MLM phase I stability (% remaining after 30 min) [4]: 14 ± 0.6%; AUC(0-inf) [5, 9]: 25800 ± 7970 ng·h/mL; AUC(0-t) [5, 9]: 25700 ± 8010 ng·h/mL; Cmax [5, 9]: 13300 ± 2820 ng/mL; MRT inf [5, 9]: 1.81 ± 0.94 h; MRT last [5, 9]: 1.74 ± 0.99 h; Tmax [5, 9]: 0.42 ± 0.14 h; bioavailability [5, 9]: 148%; half-life [5, 9]: 4.25 ± 3.57 h |

| Structure (SMILES) | HLM phase I stability (% remaining after 30 min) [1] [%] | remaining at 0.5 h, 1 μM (in vitro [2]) [%] | solubility at 24 h (physchem) [µg/mL] | remaining at 0.5 h, 1 μM (in vitro [3]) [%] | Stability in human liver microsomes relative to 1, Truli [1] | Ft ([5]; male mice, 10 mg/kg) [%] | AUC(0-inf) [5, 6] [ng·h/mL] | AUC(0-t) [5, 6] [ng·h/mL] | Cmax [5, 6] [ng/mL] | MRT inf [5, 6] [h] | MRT last [5, 6] [h] | Tmax [5, 6] [h] | half-life [5, 6] [h] | AUC(0-inf) [5, 7] [ng·h/mL] | AUC(0-t) [5, 7] [ng·h/mL] | MRT inf [5, 7] [h] | MRT last [5, 7] [h] | Vd [5, 7] [L/kg] | clearance [5, 8] [mL/min/kg] | half-life [5, 7] [h] | further results |
| --- | --- | --- | --- | --- | --- | --- | --- | --- | --- | --- | --- | --- | --- | --- | --- | --- | --- | --- | --- | --- | --- |
| O=C(/N=c1\sccn1Cc1ccccc1)c1n[nH]c2ncccc12 [Compound 5l, (Z)-N-(3-Benzylthiazol-2(3H)-ylidene)-1H-pyrazolo[3,4-b]pyridine-3-carboxamide] | 35 ± 1.3 | 34.9 ± 1.31 | 290 ± 15 (≈ 865 µM) | 0.69 ± 0.17 | more than ten times higher stability | 74.36 | 4390 ± 710 | 4370 ± 720 | 7300 ± 1880 | 1.14 ± 0.21 | 0.97 ± 0.12 | 0.08 | 5.59 ± 0.88 | 2960 ± 150 | 2940 ± 180 | 1.04 ± 0.71 | 0.71 ± 0.25 | 1.8 ± 1.32 | 28.2 | 6.56 ± 3.32 | Number hits, S(1) (468 kinases; %Ctrl <1): 0; Number hits, S(10) (468 kinases; %Ctrl <10): 2; Number hits, S(35) (468 kinases; %Ctrl <35): 3; %Ctrl @ 100 nM, YSK4 (YSK4): 7.1 %Ctrl; Ft (bioavailability, F) ([5]; male mice, PO, 20 mg/kg): 43.89%; AUC(0-inf) [5, 9]: 5160 ± 590 ng·h/mL; AUC(0-t) [5, 9]: 5150 ± 590 ng·h/mL; Cmax [5, 9]: 5740 ± 920 ng/mL; MRT inf [5, 9]: 1.56 ± 0.1 h; MRT last [5, 9]: 1.5 ± 0.1 h; Tmax [5, 9]: 0.25 h; half-life [5, 9]: 3.46 ± 0.33 h; %Ctrl @ 100 nM, DMPK (DMPK): 6.5 %Ctrl |
